Source: ChEMBL document CHEMBL4680144, “N-thiadiazole-4-hydroxy-2-quinolone-3-carboxamides bearing heteroaromatic rings as novel antibacterial agents: Design, synthesis, biological evaluation and target identification” (Eur J Med Chem, 2020)
In brackets after ≈: the same amount, converted by molar mass. One block for each compound: values may come before it.

Assays:
[1] = Inhibition of Staphylococcus aureus Gyrase B using linear pBR322 DNA as substrate incubated for 30 mins in presence of ATP by ADP-Glo assay
Staphylococcus aureus [2] = assay: Antibacterial activity against wild type methicillin-sensitive Staphylococcus aureus ATCC 29213 assessed as inhibition of bacterial growth incubated for 18 to 24 hrs by broth microdilution method; format: functional; conditions: time 18-24 hrs
Staphylococcus aureus [3] = assay: Antibacterial activity against methicillin-resistant Staphylococcus aureus clinical isolate 15-3 assessed as inhibition of bacterial growth incubated for 18 to 24 hrs by broth microdilution method; format: functional; conditions: time 18-24 hrs
Staphylococcus aureus [4] = assay: Antibacterial activity against methicillin-resistant Staphylococcus aureus clinical isolate 15-9 assessed as inhibition of bacterial growth incubated for 18 to 24 hrs by broth microdilution method; format: functional; conditions: time 18-24 hrs
[5] = tested on: Staphylococcus epidermidis; assay: Antibacterial activity against methicillin-resistant Staphylococcus epidermidis clinical isolate 15-2 assessed as inhibition of bacterial growth incubated for 18 to 24 hrs by broth microdilution method; format: functional; conditions: time 18-24 hrs
[6] = tested on: Staphylococcus epidermidis; assay: Antibacterial activity against methicillin-resistant Staphylococcus epidermidis clinical isolate 15-3 assessed as inhibition of bacterial growth incubated for 18 to 24 hrs by broth microdilution method; format: functional; conditions: time 18-24 hrs
Staphylococcus aureus [7] = assay: Antibacterial activity against methicillin-resistant Staphylococcus aureus clinical isolate 15-8 assessed as inhibition of bacterial growth incubated for 18 to 24 hrs by broth microdilution method; format: functional; conditions: time 18-24 hrs
Staphylococcus aureus [8] = assay: Antibacterial activity against methicillin-resistant Staphylococcus aureus clinical isolate 15-7 assessed as inhibition of bacterial growth incubated for 18 to 24 hrs by broth microdilution method; format: functional; conditions: time 18-24 hrs
Enterococcus faecalis [9] = assay: Antibacterial activity against vancomycin-resistant Enterococcus faecalis ATCC 51299 assessed as inhibition of bacterial growth incubated for 18 to 24 hrs by broth microdilution method; format: functional; conditions: time 18-24 hrs
Staphylococcus aureus [10] = assay: Antibacterial activity against methicillin resistant and vancomycin-intermediate sensitive Staphylococcus aureus ATCC 700699 assessed as inhibition of bacterial growth incubated for 18 to 24 hrs by broth microdilution method; format: functional; conditions: time 18-24 hrs
Staphylococcus aureus [11] = assay: Antibacterial activity against methicillin-resistant Staphylococcus aureus clinical isolate 15-1 assessed as inhibition of bacterial growth incubated for 18 to 24 hrs by broth microdilution method; format: functional; conditions: time 18-24 hrs
Enterococcus faecalis [12] = assay: Antibacterial activity against vancomycin-resistant Enterococcus faecalis ATCC 51575 assessed as inhibition of bacterial growth incubated for 18 to 24 hrs by broth microdilution method; format: functional; conditions: time 18-24 hrs
Enterococcus faecalis [13] = assay: Antibacterial activity against Enterococcus faecalis clinical isolate 15-2 assessed as inhibition of bacterial growth incubated for 18 to 24 hrs by broth microdilution method; format: functional; conditions: time 18-24 hrs
Enterococcus faecium [14] = assay: Antibacterial activity against Enterococcus faecium clinical isolate 15-2 assessed as inhibition of bacterial growth incubated for 18 to 24 hrs by broth microdilution method; format: functional; conditions: time 18-24 hrs
Staphylococcus aureus [15] = assay: Antibacterial activity against methicillin-resistant Staphylococcus aureus clinical isolate 15-6 assessed as inhibition of bacterial growth incubated for 18 to 24 hrs by broth microdilution method; format: functional; conditions: time 18-24 hrs
Staphylococcus aureus [16] = assay: Antibacterial activity against methicillin-resistant Staphylococcus aureus clinical isolate 15-2 assessed as inhibition of bacterial growth incubated for 18 to 24 hrs by broth microdilution method; format: functional; conditions: time 18-24 hrs
Enterococcus faecium [17] = assay: Antibacterial activity against Enterococcus faecium clinical isolate 15-1 assessed as inhibition of bacterial growth incubated for 18 to 24 hrs by broth microdilution method; format: functional; conditions: time 18-24 hrs
Staphylococcus aureus [18] = assay: Antibacterial activity against methicillin resistant and vancomycin-intermediate sensitive Staphylococcus aureus ATCC 700788 assessed as inhibition of bacterial growth incubated for 18 to 24 hrs by broth microdilution method; format: functional; conditions: time 18-24 hrs
[19] = tested on: Staphylococcus epidermidis; assay: Antibacterial activity against methicillin-resistant Staphylococcus epidermidis clinical isolate 15-1 assessed as inhibition of bacterial growth incubated for 18 to 24 hrs by broth microdilution method; format: functional; conditions: time 18-24 hrs
Enterococcus faecalis [20] = assay: Antibacterial activity against Enterococcus faecalis clinical isolate 15-1 assessed as inhibition of bacterial growth incubated for 18 to 24 hrs by broth microdilution method; format: functional; conditions: time 18-24 hrs
[21] = tested on: Staphylococcus epidermidis; assay: Antibacterial activity against methicillin-sensitive Staphylococcus epidermidis clinical isolate 15-4 assessed as inhibition of bacterial growth incubated for 18 to 24 hrs by broth microdilution method; format: functional; conditions: time 18-24 hrs
[22] = tested on: Staphylococcus epidermidis; assay: Antibacterial activity against methicillin-sensitive Staphylococcus epidermidis clinical isolate 15-3 assessed as inhibition of bacterial growth incubated for 18 to 24 hrs by broth microdilution method; format: functional; conditions: time 18-24 hrs
Enterococcus faecalis [23] = assay: Antibacterial activity against vancomycin-resistant Enterococcus faecalis ATCC 700802 assessed as inhibition of bacterial growth incubated for 18 to 24 hrs by broth microdilution method; format: functional; conditions: time 18-24 hrs

SMILES: CCOc1cccc(-c2nnc(NC(=O)c3c(O)c4ccccc4n(CC)c3=O)s2)c1
IC50 [1]: 1690 nM | MIC (Staphylococcus aureus [2]): 3.12 µg/mL (≈ 7.15 µM)

SMILES: CCn1c(=O)c(C(=O)Nc2nnc(-c3ccccc3)s2)c(O)c2ccccc21
MIC (Staphylococcus aureus [3]): 1 µg/mL (≈ 2.55 µM) | MIC (Staphylococcus aureus [4]): 0.25 µg/mL (≈ 0.637 µM) | MIC [5]: 1 µg/mL (≈ 2.55 µM) | MIC [6]: 1 µg/mL (≈ 2.55 µM) | MIC (Staphylococcus aureus [7]): 0.5 µg/mL (≈ 1.27 µM) | MIC (Staphylococcus aureus [8]): 1 µg/mL (≈ 2.55 µM) | IC50 [1]: 1720 nM | MIC (Enterococcus faecalis [9]): 1 µg/mL (≈ 2.55 µM) | MIC (Staphylococcus aureus [10]): 2 µg/mL (≈ 5.1 µM) | MIC (Staphylococcus aureus [11]): 2 µg/mL (≈ 5.1 µM) | MIC (Enterococcus faecalis [12]): 1 µg/mL (≈ 2.55 µM) | MIC (Enterococcus faecalis [13]): 1 µg/mL (≈ 2.55 µM) | MIC (Enterococcus faecium [14]): 2 µg/mL (≈ 5.1 µM) | MIC (Staphylococcus aureus [15]): 0.5 µg/mL (≈ 1.27 µM) | MIC (Staphylococcus aureus [16]): 2 µg/mL (≈ 5.1 µM) | MIC (Enterococcus faecium [17]): 1 µg/mL (≈ 2.55 µM) | MIC (Staphylococcus aureus [18]): 2 µg/mL (≈ 5.1 µM) | MIC [19]: 1 µg/mL (≈ 2.55 µM) | MIC (Enterococcus faecalis [20]): 1 µg/mL (≈ 2.55 µM) | MIC [21]: 1 µg/mL (≈ 2.55 µM) | MIC (Staphylococcus aureus [2]): 0.39 µg/mL (≈ 0.994 µM) | MIC [22]: 1 µg/mL (≈ 2.55 µM) | MIC (Enterococcus faecalis [23]): 1 µg/mL (≈ 2.55 µM)

SMILES: CCn1c(=O)c(C(=O)Nc2nncs2)c(O)c2ccccc21
IC50 [1]: 110 nM | MIC (Staphylococcus aureus [2]): 1.56 µg/mL (≈ 4.93 µM)

SMILES: Cn1c(=O)c(C(=O)Nc2nncs2)c(O)c2ccccc21
IC50 [1]: 190 nM | MIC (Staphylococcus aureus [2]): 6.25 µg/mL (≈ 20.7 µM)

SMILES: CCOc1ccccc1-c1nnc(NC(=O)c2c(O)c3ccccc3n(CC)c2=O)s1
IC50 [1]: 2350 nM | MIC (Staphylococcus aureus [2]): 12.5 µg/mL (≈ 28.6 µM)

SMILES: CCn1c(=O)c(C(=O)Nc2nnc(C3CCCC3)s2)c(O)c2ccccc21
IC50 [1]: 550 nM | MIC (Staphylococcus aureus [2]): 6.25 µg/mL (≈ 16.3 µM)

SMILES: CCn1c(=O)c(C(=O)Nc2nnc(C3CCCCC3)s2)c(O)c2ccccc21
IC50 [1]: 550 nM | MIC (Staphylococcus aureus [2]): 12.5 µg/mL (≈ 31.4 µM)

SMILES: CCCCCCc1nnc(NC(=O)c2c(O)c3ccccc3n(CC)c2=O)s1
IC50 [1]: 350 nM | MIC (Staphylococcus aureus [2]): 12.5 µg/mL (≈ 31.2 µM)

SMILES: CCn1c(=O)c(C(=O)Nc2nnc(-c3cscn3)s2)c(O)c2ccccc21
MIC (Staphylococcus aureus [3]): 4 µg/mL (≈ 10 µM) | MIC (Staphylococcus aureus [4]): 4 µg/mL (≈ 10 µM) | MIC [5]: 8 µg/mL (≈ 20 µM) | MIC [6]: 4 µg/mL (≈ 10 µM) | MIC (Staphylococcus aureus [7]): 4 µg/mL (≈ 10 µM) | MIC (Staphylococcus aureus [8]): 4 µg/mL (≈ 10 µM) | IC50 [1]: 160 nM | MIC (Enterococcus faecalis [9]): 32 µg/mL (≈ 80.1 µM) | MIC (Staphylococcus aureus [10]): 4 µg/mL (≈ 10 µM) | MIC (Staphylococcus aureus [11]): 4 µg/mL (≈ 10 µM) | MIC (Enterococcus faecalis [12]): 32 µg/mL (≈ 80.1 µM) | MIC (Enterococcus faecalis [13]): 4 µg/mL (≈ 10 µM) | MIC (Enterococcus faecium [14]): 4 µg/mL (≈ 10 µM) | MIC (Staphylococcus aureus [15]): 4 µg/mL (≈ 10 µM) | MIC (Staphylococcus aureus [16]): 4 µg/mL (≈ 10 µM) | MIC (Enterococcus faecium [17]): 8 µg/mL (≈ 20 µM) | MIC (Staphylococcus aureus [18]): 4 µg/mL (≈ 10 µM) | MIC [19]: 4 µg/mL (≈ 10 µM) | MIC (Enterococcus faecalis [20]): 4 µg/mL (≈ 10 µM) | MIC [21]: 4 µg/mL (≈ 10 µM) | MIC (Staphylococcus aureus [2]): 0.78 µg/mL (≈ 1.95 µM) | MIC [22]: 8 µg/mL (≈ 20 µM) | MIC (Enterococcus faecalis [23]): 32 µg/mL (≈ 80.1 µM)

Results, then the compound that gave them:

IC50 [1]: 240 nM | MIC (Staphylococcus aureus [2]): 1.56 µg/mL (≈ 3.97 µM)
SMILES: CCn1c(=O)c(C(=O)Nc2nnc(-c3ccncc3)s2)c(O)c2ccccc21

IC50 [1]: 2170 nM | MIC (Staphylococcus aureus [2]): 1.56 µg/mL (≈ 3.69 µM)
SMILES: CCn1c(=O)c(C(=O)Nc2nnc(-c3cccc(OC)c3)s2)c(O)c2ccccc21

IC50 [1]: 1750 nM | MIC (Staphylococcus aureus [2]): 12.5 µg/mL (≈ 30.8 µM)
SMILES: CCn1c(=O)c(C(=O)Nc2nnc(-c3cccc(C)c3)s2)c(O)c2ccccc21

IC50 [1]: 3180 nM | MIC (Staphylococcus aureus [2]): 50 µg/mL (≈ 123 µM)
SMILES: CCn1c(=O)c(C(=O)Nc2nnc(-c3ccccc3C)s2)c(O)c2ccccc21

IC50 [1]: 1420 nM | MIC (Staphylococcus aureus [2]): 12.5 µg/mL (≈ 27.3 µM)
SMILES: CCn1c(=O)c(C(=O)Nc2nnc(-c3ccc(OC(F)F)cc3)s2)c(O)c2ccccc21

IC50 [1]: 2190 nM | MIC (Staphylococcus aureus [2]): 12.5 µg/mL (≈ 26.5 µM)
SMILES: CCn1c(=O)c(C(=O)Nc2nnc(-c3ccc(Br)cc3)s2)c(O)c2ccccc21

IC50 [1]: 1810 nM | MIC (Staphylococcus aureus [2]): 6.25 µg/mL (≈ 15.2 µM)
SMILES: CCn1c(=O)c(C(=O)Nc2nnc(-c3cccc(F)c3)s2)c(O)c2ccccc21

IC50 [1]: 2300 nM | MIC (Staphylococcus aureus [2]): 100 µg/mL (≈ 229 µM)
SMILES: CCOc1ccc(-c2nnc(NC(=O)c3c(O)c4ccccc4n(CC)c3=O)s2)cc1
